Source: PubChem BioAssay (NCI)
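How tested: cells in 96-well plates exposed to compound for 48 hours at five concentrations. Definition used: TGI = concentration required for complete inhibition of growth.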

Columns and labels:
Assay in all cases: NCI tumour cell line growth inhibition, 48 h
786-0 renal = system: 786-0 renal
OVCAR-8 ovarian = system: OVCAR-8 ovarian
HOP-62 NSCLC = system: HOP-62 NSCLC
HCT-15 colon = system: HCT-15 colon
UACC-257 melanoma = system: UACC-257 melanoma
TK-10 renal = system: TK-10 renal
HOP-18 NSCLC = system: HOP-18 NSCLC
SW-620 colon = system: SW-620 colon
SN12C renal = system: SN12C renal
UACC-62 melanoma = system: UACC-62 melanoma
SF-295 CNS = system: SF-295 CNS
NCI-H23 lung = system: NCI-H23 lung
DLD-1 colon = system: DLD-1 colon
EKVX NSCLC = system: EKVX NSCLC
KM12 colon = system: KM12 colon
K-562 leukemia = system: K-562 leukemia
OVCAR-3 ovarian = system: OVCAR-3 ovarian
KM20L2 colon = system: KM20L2 colon
OVCAR-4 ovarian = system: OVCAR-4 ovarian
HL-60(TB) leukemia = system: HL-60(TB) leukemia
DMS 273 small cell lung = system: DMS 273 small cell lung
NCI-H226 lung = system: NCI-H226 lung
M14 melanoma = system: M14 melanoma
MALME-3M melanoma = system: MALME-3M melanoma
SK-MEL-28 melanoma = system: SK-MEL-28 melanoma
NCI-H460 lung = system: NCI-H460 lung
M19-MEL melanoma = system: M19-MEL melanoma
A498 renal = system: A498 renal
SK-MEL-5 melanoma = system: SK-MEL-5 melanoma
CAKI-1 renal = system: CAKI-1 renal
U251 CNS = system: U251 CNS
HCC-2998 colon = system: HCC-2998 colon
COLO 205 colon = system: COLO 205 colon
IGROV1 ovarian = system: IGROV1 ovarian
RXF 393 renal = system: RXF 393 renal
SF-539 CNS = system: SF-539 CNS
MOLT-4 leukemia = system: MOLT-4 leukemia
OVCAR-5 ovarian = system: OVCAR-5 ovarian
XF 498 CNS = system: XF 498 CNS
A549 NSCLC = system: A549 NSCLC
SNB-75 CNS = system: SNB-75 CNS
NCI-H522 lung = system: NCI-H522 lung
CCRF-CEM leukemia = system: CCRF-CEM leukemia
HCT-116 colon = system: HCT-116 colon
LOX IMVI melanoma = system: LOX IMVI melanoma
SF-268 CNS = system: SF-268 CNS
SK-OV-3 ovarian = system: SK-OV-3 ovarian
ACHN renal = system: ACHN renal
SNB-78 CNS = system: SNB-78 CNS
SNB-19 CNS = system: SNB-19 CNS
HT29 colon = system: HT29 colon
SK-MEL-2 melanoma = system: SK-MEL-2 melanoma
RPMI-8226 leukemia = system: RPMI-8226 leukemia
LXFL 529 NSCLC = system: LXFL 529 NSCLC
DMS 114 small cell lung = system: DMS 114 small cell lung
UO-31 renal = system: UO-31 renal
RXF-631 renal = system: RXF-631 renal
HOP-92 NSCLC = system: HOP-92 NSCLC
SR leukemia = system: SR leukemia

Measured: TGI

CCOC(=O)C1Nc2ccccc2[C@H]2OCC[C@@H]12 (stereo not given in full)
not listed: RPMI-8226 leukemia | LXFL 529 NSCLC | DMS 114 small cell lung | UO-31 renal | RXF-631 renal | HOP-92 NSCLC | SR leukemia
> 100 µM: all other assays above

CC1=NN(c2ccccc2)C(=O)/C1=C\c1ccc([N+](=O)[O-])cc1
56.2 µM: HL-60(TB) leukemia | A498 renal
48.1 µM: LOX IMVI melanoma
63.2 µM: HCC-2998 colon
57.9 µM: NCI-H522 lung
49.5 µM: CCRF-CEM leukemia
77.4 µM: RXF-631 renal
81.4 µM: K-562 leukemia
33 µM: COLO 205 colon
44.6 µM: XF 498 CNS
62.7 µM: DMS 273 small cell lung
57.2 µM: RPMI-8226 leukemia
64.3 µM: KM12 colon
41.4 µM: RXF 393 renal
93.2 µM: SW-620 colon
53.3 µM: UACC-62 melanoma
69.3 µM: MALME-3M melanoma
58.7 µM: SK-OV-3 ovarian
56 µM: SK-MEL-2 melanoma
45.2 µM: SF-539 CNS
73.6 µM: CAKI-1 renal
83.3 µM: IGROV1 ovarian
48.4 µM: MOLT-4 leukemia
85.8 µM: 786-0 renal
50.8 µM: OVCAR-5 ovarian
68.9 µM: SF-295 CNS
97 µM: HT29 colon
54.5 µM: SK-MEL-5 melanoma
50 µM: DMS 114 small cell lung
91 µM: NCI-H23 lung
42.2 µM: OVCAR-4 ovarian
not listed: HOP-62 NSCLC | HOP-18 NSCLC | OVCAR-3 ovarian | NCI-H226 lung | M19-MEL melanoma | HCT-116 colon | HOP-92 NSCLC | SR leukemia
> 100 µM: all other assays above

Cc1ccc(NC(=O)C(=O)C(C(=O)/C=C/c2ccccc2)C2OC(=O)c3ccccc32)c(C)c1 (stereo not given)
not listed: OVCAR-8 ovarian | HOP-18 NSCLC | DMS 273 small cell lung | SK-MEL-2 melanoma
> 100 µM: all other assays above

c1cc(-c2cn3c(n2)SCC3)ccn1
> 65.2 µM: SF-539 CNS
93.1 µM: DMS 273 small cell lung
> 67.5 µM: HL-60(TB) leukemia
> 89.6 µM: DMS 114 small cell lung
44.5 µM: 786-0 renal
> 57.7 µM: SW-620 colon
> 95.2 µM: NCI-H460 lung
> 60.4 µM: HCT-116 colon
> 31.6 µM: K-562 leukemia
> 59 µM: HCT-15 colon
not listed: RXF 393 renal | RXF-631 renal
> 100 µM: all other assays above
